Source: patent US20130123481A1, “MODIFIED NUCLEOSIDES, NUCLEOTIDES, AND NUCLEIC ACIDS, AND USES THEREOF” (MODERNA THERAPEUTICS, priority 2011, published 2013)

How the values were obtained:
[1] = tested on: PBMC, interferon-alpha (IFN-alpha); experiment: 2′Fluoro Chemistries in PBMC - IFN-alpha production; assay type: cell-based, human; details: G-CSF modified mRNA, ELISA, average of 3 donors
[2] = tested on: PBMC, tumor necrosis factor-alpha (TNF-alpha); experiment: 2′Fluoro Chemistries in PBMC - TNF-alpha production; assay type: cell-based, human; details: G-CSF modified mRNA, ELISA, average of 2 donors
female BALB/C mice = experiment: In Vivo Detection of Innate Immune Response Study - human G-CSF protein in serum; details: human G-CSF in mouse serum; I.M.; 8 hours after dosing
Procedure: Blood is collected at 8 hours after dosing.

[3] = tested on: human PBMC, tumor necrosis factor alpha (TNF-alpha)
[4] = tested on: female BALB/C mice, interferon-alpha (IFN-alpha); details: mouse, in vivo
[5] = tested on: Rabbit Reticulocyte Lysate; experiment: In Vitro Screening in Rabbit Reticulocyte Lysates - luciferase (RLU); assay type: biochemical; details: 250 ng 2′-fluoro-containing luciferase mRNA, 60 minutes, 30° C., background about 160 RLU
Procedure: The diluted luciferase was added to 40 ul of freshly prepared Rabbit Reticulocyte Lysate and the in vitro translation reaction was done in a standard 1.5 mL polypropylene reaction tube (Thermo Fisher Scientific, Waltham, Mass.) at 30° C. in a dry heating block. The translation assay was done with the Rabbit Reticulocyte Lysate (nuclease-treated) kit (Promega, Madison, Wis.) according to the manufacturer's instructions. The reaction buffer was supplemented with a one-to-one blend of provided amino acid stock solutions devoid of either Leucine or Methionine resulting in a reaction mix containing sufficient amounts of both amino acids to allow effective in vitro translation.
After 60 minutes of incubation, the reaction was stopped by placing the reaction tubes on ice. […] The volumes of the in vitro translation reactions were adjusted or diluted until no more than 2 mio relative light units (RLUs) per well were detected for the strongest signal producing samples and the RLUs for each chemistry tested are shown in Table 29. The plate reader was a BioTek Synergy H1 (BioTek, Winooski, Vt.). […]
The 2′Fluoro-modified mRNA were then transfected into HeLa cells to assess protein production in a cell context and the same mRNA were also assessed in a cell-free rabbit reticulocyte system. […]

HeLa cells = experiment: In vitro Screening in HeLa Cells - luciferase (RLU); assay type: cell-based, human; set-up: key to Protein (Luc; HeLa): the protein production of HeLa is judged by “+,” “+/−” and “−”; the protein production of HeLa is judged by “+,” “+/−” and “−”; the protein production of HeLa is judged by “+,” “+/−” and “−”
Procedure: The 2′Fluoro-modified mRNA were then transfected into HeLa cells to assess protein production in a cell context and the same mRNA were also assessed in a cell-free rabbit reticulocyte system. A control of unmodified luciferase (natural luciferase) was used for both transcription experiments, a control of untreated and mock transfected (Lipofectamine 2000 alone) were also analyzed for the HeLa transfection and a control of no RNA was analyzed for the rabbit reticulysates.
For the HeLa transfection experiments, the day before transfection, 20,000 HeLa cells (ATCC no. CCL-2; Manassas, Va.) were harvested by treatment with Trypsin-EDTA solution (LifeTechnologies, Grand Island, N.Y.) and seeded in a total volume of 100 ul EMEM medium (supplemented with 10% FCS and 1× Glutamax) per well in a 96-well cell culture plate (Corning, Manassas, Va.). The cells were grown at […] in 5% CO2 atmosphere overnight. […] Lipofectamine 2000 (LifeTechnologies, Grand Island, N.Y.) was used as transfection reagent and 0.2 ul were diluted in 10 ul final volume of OPTI-MEM. After […] of incubation at room temperature, both solutions were combined and incubated an additional 15 minute at room temperature. Then the 20 ul combined solution was added to the 100 ul cell culture medium containing the HeLa cells and incubated at room temperature. After 18 to 22 hours of incubation cells expressing luciferase were lysed with 100 ul of Passive Lysis Buffer (Promega, Madison, Wis.) according to manufacturer instructions. Aliquots of the lysates were transferred to white opaque polystyrene 96-well plates (Corning, Manassas, Va.) and combined with 100 ul complete luciferase assay solution (Promega, Madison, Wis.). The lysate volumes were adjusted or diluted until no more than 2 mio relative light units (RLU) per well were detected for the strongest signal producing samples and the RLUs for each chemistry tested are shown in Table 42. The plate reader was a BioTek Synergy H1 (BioTek, Winooski, Vt.). The background signal of the plates without reagent was about 200 relative light units per well.
To evaluate using of 2′fluoro-modified mRNA in combination with other modification a series of mRNA were transcribed using either wild-type T7 polymerase (non-fluoro-containing compounds) or using mutant T7 polymerases (fluyoro-containing compounds) as described in Example 86. All modified mRNA were tested by in vitro transfection in HeLa cells.
After 18 to 22 hours of incubation cells expressing luciferase were lysed with 100 ul of Passive Lysis Buffer (Promega, Madison, Wis.) according to manufacturer instructions. Aliquots of the lysates were transferred to white opaque polystyrene 96-well plates (Corning, Manassas, Va.) and combined with 100 ul complete luciferase assay solution (Promega, Madison, Wis.). The lysate volumes were adjusted or diluted until no more than 2 mio relative light units (RLU) per well were detected for the strongest signal producing samples and the RLUs for each chemistry tested are shown in Table 44. The plate reader was a BioTek Synergy H1 (BioTek, Winooski, Vt.). The background signal of the plates without reagent was about 200 relative light units per well.

wild-type T7 polymerase = wild-type T7 polymerase (Escherichia phage T7, UniProt P00573); experiment: In Vitro Transcription with Wild-Type T7 Polymerase (transcription and capping yield); details: Table 48 non-naturally occurring, Pass/Fail
Procedure: (§1) The luciferase and G-CSF modified mRNA were also subjected to an enzymatic capping reaction and each modified mRNA capping reaction was evaluated for yield by spectrophometic measurement (OD260) and correct size assessed using bioanalyzer.

[6] = biological target: T1, mutant T7 polymerase (Durascribe T7 Transcription kit) (Escherichia phage T7, UniProt P00573, Y639F); details: Table 48 non-naturally occurring, in vitro transcription using mutant T7 polymerase
T1 construct: purchased Epicentre, Madison, Wis; DS010925
Procedure: as §1

Sequence of wild-type T7 polymerase (P00573 whole entry): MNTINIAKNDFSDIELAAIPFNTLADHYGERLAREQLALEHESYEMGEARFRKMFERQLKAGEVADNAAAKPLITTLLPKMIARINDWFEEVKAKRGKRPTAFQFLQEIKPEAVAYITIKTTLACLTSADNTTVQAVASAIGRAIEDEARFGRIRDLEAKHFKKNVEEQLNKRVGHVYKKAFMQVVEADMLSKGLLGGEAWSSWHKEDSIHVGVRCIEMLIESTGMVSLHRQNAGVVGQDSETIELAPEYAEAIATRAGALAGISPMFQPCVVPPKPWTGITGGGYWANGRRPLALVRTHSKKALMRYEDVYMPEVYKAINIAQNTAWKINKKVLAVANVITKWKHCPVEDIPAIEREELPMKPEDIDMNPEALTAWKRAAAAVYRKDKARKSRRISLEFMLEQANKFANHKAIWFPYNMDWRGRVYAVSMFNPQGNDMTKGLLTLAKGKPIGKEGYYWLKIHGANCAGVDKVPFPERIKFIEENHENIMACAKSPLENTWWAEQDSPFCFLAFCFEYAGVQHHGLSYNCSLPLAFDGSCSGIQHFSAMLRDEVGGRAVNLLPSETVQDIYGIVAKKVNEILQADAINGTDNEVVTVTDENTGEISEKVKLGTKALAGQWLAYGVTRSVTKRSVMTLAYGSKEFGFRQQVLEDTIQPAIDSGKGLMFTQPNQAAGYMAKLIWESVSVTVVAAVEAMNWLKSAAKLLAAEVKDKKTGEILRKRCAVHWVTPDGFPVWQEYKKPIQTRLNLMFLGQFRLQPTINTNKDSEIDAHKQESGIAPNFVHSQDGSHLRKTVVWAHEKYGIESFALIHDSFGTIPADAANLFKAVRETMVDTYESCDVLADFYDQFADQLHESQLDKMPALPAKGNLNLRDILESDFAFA
T1 sequence (P00573 whole entry Y639F): as the sequence (P00573 whole entry) above, with Y639F counted along it

In the case of `CCOCc1nc2c(N)nc3ccccc3c2n1CC(C)(C)O` [Compound R-848], the “IFN-alpha: 3 Donor Average” value [1] was 45 pg/mL, the “TNF-alpha: 2 Donor Average (pg/ml)” value [2] was 8,235 pg/ml and the G-CSF protein (female BALB/C mice) was 3.4 pg/mL. For the same molecule, the “TNF-alpha: 3 Donor Average” value [3] was 1477 pg/mL and the IFN-alpha expression [4] was 40.97 pg/mL.

For “Natural Luciferase: natural luciferase mRNA (SEQ ID NO: 3), Cap1 [reference compound]”, the RLU [5] was 2,159,968 RLU, the RLU (HeLa cells; 83 ng 2′fluoro-containing luciferase mRNA, Lipofectamine 2000, HeLa cells) was 133,853.5 RLU and the RLU (HeLa cells; 83 ng luciferase mRNA with combination of modifications, HeLa cells, 18 to 22 hours, background about 200 RLU) was 30,801 RLU.

For 2′-F-adenosine, the “Protein (Luc; HeLa)” value (HeLa cells; Table 48 non-naturally occurring, ** mutant T7 polymerase) was “−**”, the “IVT (G-CSF), first result” value (wild-type T7 polymerase; G-CSF mRNA in vitro transcription) was “Fail/Fail**” and the “IVT (Luc), first result” value (wild-type T7 polymerase; luciferase mRNA in vitro transcription) was “Fail”. The “IVT (G-CSF), second result **” value [6] was “Fail/Fail**” and the “IVT (Luc), second result **” value [6] was “Pass”.
